The results in this text go back to patent US20250170130A1, “MODULATORS OF MYC FAMILY PROTO-ONCOGENE PROTEIN” (Nalo Therapeutics, priority 2022, published 2025).

Experiment [1] addresses T1, MycN (Homo sapiens, UniProt P04198).
T1 construct: endogenous in cells; host or cells: SK-N-BE(2)
T1 sequence (P04198 1-464): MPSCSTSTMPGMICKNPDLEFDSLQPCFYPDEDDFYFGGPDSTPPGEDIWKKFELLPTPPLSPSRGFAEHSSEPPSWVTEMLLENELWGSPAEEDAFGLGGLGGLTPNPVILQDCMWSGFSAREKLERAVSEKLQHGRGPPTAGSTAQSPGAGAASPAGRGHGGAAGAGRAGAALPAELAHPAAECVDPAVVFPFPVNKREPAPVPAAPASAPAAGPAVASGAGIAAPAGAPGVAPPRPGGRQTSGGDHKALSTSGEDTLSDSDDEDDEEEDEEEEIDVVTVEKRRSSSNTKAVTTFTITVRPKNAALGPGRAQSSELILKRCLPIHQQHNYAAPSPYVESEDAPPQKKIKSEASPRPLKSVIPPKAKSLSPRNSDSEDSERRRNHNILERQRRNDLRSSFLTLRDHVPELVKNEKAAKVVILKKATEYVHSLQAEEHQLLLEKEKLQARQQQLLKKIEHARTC
The experiment in a line: Degradation of MycN protein in SK-N-BE(2) cells, JESS/Western blot of lysates. Format: cell-based. To be noted: SKNBE2, 24 h, SKNBE2 cells, 24 h; for Dmax at 0.5 µM: read-out: % Degradation of MycN (SKNBE2) 24 h, 0.5 μM; for Dmax at 1 µM: read-out: % Degradation of MycN (SKNBE2) 24 h, 1 μM; for Dmax at 3 µM: read-out: % Degradation of MycN (SKNBE2) 24 h, 3 μM; for Dmax at 6 µM: read-out: % Degradation of MycN (SKNBE2) 24 h, 6 μM. The protocol:
(§1) For L363 cells (suspension), 1E6 cells were plated into each well of a 6 well plate. For SK-N-BE(2) cells (adherent), 5E5 cells were plated into each well of a 6 well dish. Cells were cultured for 24 hrs then treated with exemplary compounds at 0.1, 0.5, 1.0, 3.0 and 6.0 mM final assay concentrations plus DMSO control. All compounds were diluted to 10 mM in DMSO. Cells were treated with the compound for 24 hrs, then for both cell types, media containing cells were removed from wells into a 15 ml centrifuge tube, and remaining adherent SK-N-BE(2) cells were also scraped from the wells into the appropriate tubes. Tubes were centrifuged, cells were washed with PBS then re-centrifuged to pellet cells. A RIPA buffer cocktail was added to the cells on ice for 5 mins. Cell lysates were clarified by centrifugation and stored at −80 degrees until required. BCA assay was performed on each lysate to determine the protein concentration.
(§2) Once an appropriate lysate concentration and antibody concentration was determined, samples were screened in the JESS technology (Protein Simple, San Jose, CA—https://www.proteinsimple.com/jess.html).
(§3) Target protein antibodies (n-myc and c-myc) were detected in the chemi-luminescence channel and loading controls (tubulin and GAPDH) were detected using a Near Infra Red (NIR) labeled secondary antibody.
For SK-N-EB2 adherent cells, 5E5 cells in 1.9 mls media were plated into 6 well dishes and incubated for 24 hrs. Exemplary compounds were added (100 ul, 1 in 20 dilution in media) to each well (final assay concentration 6, 3, 1 and […]) together with DMSO control wells and incubated for 24 hrs. Cells were scrapped off the plate, centrifuged, washed with PBS, centrifuged, then a RIPA buffer cocktail added to the cells (100 ul), centrifuged and stored at −80 for later analysis. For L363 suspension cells, 1E6 cells were plated into 24 well dishes (950 ul media) and incubated for 24 hrs. Exemplary compounds were added (50 ul, 1 in 20 dilution in media) to each well (final assay concentration 6, 3, 1 and […]) together with DMSO control wells and incubated for 24 hrs. Cells were aspirated into tubes, centrifuged, washed with PBS, centrifuged, then a RIPA buffer cocktail added to the cells (100 ul), centrifuged and stored at −80 for later analysis.
(§4) For Western blot, a BCA (total protein) assay was run on all samples, these were then run in batches of 5 compounds plus control (DMSO) on each Western blot run—n-myc and c-myc were run in separate experiments in the chemiluminescence channel. Both tubulin and GAPDH were run as loading controls in all lanes in the near infra red channel.

The target of experiment [2] is T2, MycC (Homo sapiens, UniProt P01106).
T2 construct: endogenous in cells; host or cells: L363
T2 sequence (P01106 whole entry): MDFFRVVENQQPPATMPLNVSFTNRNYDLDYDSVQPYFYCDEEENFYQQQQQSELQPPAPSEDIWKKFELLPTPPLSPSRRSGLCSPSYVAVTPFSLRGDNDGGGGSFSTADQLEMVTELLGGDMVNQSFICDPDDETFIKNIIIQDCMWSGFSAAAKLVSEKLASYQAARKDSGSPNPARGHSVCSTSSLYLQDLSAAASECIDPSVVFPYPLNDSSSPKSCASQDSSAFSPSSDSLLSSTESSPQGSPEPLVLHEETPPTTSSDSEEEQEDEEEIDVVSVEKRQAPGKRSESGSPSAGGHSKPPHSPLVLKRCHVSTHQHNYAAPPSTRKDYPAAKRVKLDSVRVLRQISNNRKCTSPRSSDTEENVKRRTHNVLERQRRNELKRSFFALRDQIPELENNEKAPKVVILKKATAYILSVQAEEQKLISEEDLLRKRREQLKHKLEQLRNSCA
The experiment in a line: Degradation of MycC protein in L363 cells, JESS/Western blot of lysates. To be noted: L-363, 24 h, L-363 cells, 24 h; for Dmax at 0.5 µM: read-out: % Degradation of MycC (L-363) 24 h, 0.5 μM; for Dmax at 1 µM: read-out: % Degradation of MycC (L-363) 24 h, 1 μM; for Dmax at 3 µM: read-out: % Degradation of MycC (L-363) 24 h, 3 μM; for Dmax at 6 µM: read-out: % Degradation of MycC (L-363) 24 h, 6 μM. Format: cell-based. As for the experimental part: as §1, with “Cells were cultured for 24 hrs then treated with exemplary compounds at 0.1, 0.5, 1.0, 3.0 and 6.0 mM final assay concentrations plus DMSO control.” left out
as §2, §3
For SK-N-EB2 adherent cells, 5E5 cells in 1.9 mls media were plated into 6 well dishes and incubated for 24 hrs. […] Cells were scrapped off the plate, centrifuged, washed with PBS, centrifuged, then a RIPA buffer cocktail added to the cells (100 ul), centrifuged and stored at −80 for later analysis. For L363 suspension cells, 1E6 cells were plated into […] (950 ul media) and incubated for 24 hrs. […] Cells were aspirated into tubes, centrifuged, washed with PBS, centrifuged, then a RIPA buffer cocktail added to the cells (100 ul), centrifuged and stored at −80 for later analysis.
as §4
On the technique in general: Immunoblotting shows a protein as a band on a membrane.

Turning to `CN1C[C@@H]2CN(c3nccc(Nc4cc(C5CC5)[nH]n4)n3)C[C@@H]2C1` [Compound 15, 2-[rac-(3aR,6aS)-2-methyl-1,3,3a,4,6,6a-hexahydropyrrolo[3,4-c]pyrrol-5-yl]-N-(5-cyclopropyl-1H-pyrazol-3-yl)pyrimidin-4-amine], in experiment [1], the Dmax at 0.5 µM was 20 to 49%, the Dmax at 1 µM lay in the range of 20 to 49%, the Dmax at 3 µM fell in the range of 50 to 79% and the Dmax at 6 µM was in the range of 80 to 100%. Besides, in experiment [2], the Dmax at 0.5 µM was less than 20%, the Dmax at 1 µM was 20 to 49%, the Dmax at 3 µM lay in the range of 20 to 49% and the Dmax at 6 µM was 20 to 49%.

Turning to `CNC[C@H]1CCCN(c2nccc(Nc3cc(C4CC4)[nH]n3)n2)C1` [Compound 16, N-(5-Cyclopropyl-1H-pyrazol-3-yl)-2-[(3R)-3-(methylaminomethyl)-1-piperidyl]pyrimidin-4-amine], in experiment [1], the Dmax at 0.5 µM was less than 20%, the Dmax at 1 µM fell in the range of 80 to 100%, the Dmax at 3 µM was 80 to 100% and the Dmax at 6 µM was 80 to 100%. In addition, in experiment [2], the Dmax at 0.5 µM was less than 20%, the Dmax at 1 µM was less than 20%, the Dmax at 3 µM is less than 20% and the Dmax at 6 µM is less than 20%.

Turning to `CN(C)[C@@H]1CCN(c2nccc(Nc3cc(C4CC4)[nH]n3)n2)C1` [Compound 17, N-(5-cyclopropyl-1H-pyrazol-3-yl)-2-[(3R)-3-(dimethylamino)pyrrolidin-1-yl]pyrimidin-4-amine], in experiment [1], the Dmax at 0.5 µM was 20 to 49%, the Dmax at 1 µM lay in the range of 20 to 49%, the Dmax at 3 µM lay in the range of 50 to 79% and the Dmax at 6 µM lay in the range of 80 to 100%. In experiment [2], the Dmax at 3 µM was less than 20% and the Dmax at 6 µM is 80 to 100%.

Turning to `c1cc(Nc2cc(C3CC3)[nH]n2)nc(N2C[C@H]3CNC[C@H]3C2)n1` [Compound 18, N-(5-Cyclopropyl-1H-pyrazol-3-yl)-2-[rac-(3aR,6aS)-2,3,3a,4,6,6a-hexahydro-1H-pyrolo[3,4-c]pyrrol-5-yl]pyrimidin-4-amine], in experiment [1], the Dmax at 0.5 µM was in the range of 20 to 49%, the Dmax at 1 µM fell in the range of 50 to 79%, the Dmax at 3 µM was 80 to 100% and the Dmax at 6 µM was 80 to 100%. For the same molecule, in experiment [2], the Dmax at 0.5 µM is less than 20%, the Dmax at 1 µM was less than 20%, the Dmax at 3 µM is less than 20% and the Dmax at 6 µM was in the range of 20 to 49%.

On to `CN[C@@H]1CCN(c2nccc(Nc3cc(C4CC4)[nH]n3)n2)C1` [Compound 19, N-(5-Cyclopropyl-1H-pyrazol-3-yl)-2-[(3R)-3-(methylamino)pyrrolidin-1-yl]pyrimidin-4-amine], for which, in experiment [1], the Dmax at 3 µM lay within 20 to 49% and the Dmax at 6 µM was in the range of 20 to 49%. Besides, the Dmax at 0.5 µM in experiment [2] was less than 20%.

For the molecule `CN(C)CCCNc1nccc(Nc2cc(C3CC3)[nH]n2)n1` [Compound 20, N4-(5-Cyclopropyl-1H-pyrazol-3-yl)-N2-[3-(dimethylamino)propyl]pyrimidine-2,4-diamine], in experiment [1], the Dmax at 0.5 µM is less than 20%, the Dmax at 1 µM was less than 20%, the Dmax at 3 µM lay within 20 to 49% and the Dmax at 6 µM was 50 to 79%. Further, the Dmax at 6 µM in experiment [2] is less than 20%.

In the case of `CNC[C@@H]1CCN(c2nccc(Nc3cc(C4CC4)[nH]n3)n2)C1` [Compound 21, N-(5-Cyclopropyl-1H-pyrazol-3-yl)-2-[(3S)-3-(methylaminomethyl)pyrrolidin-1-yl]pyrimidin-4-amine], in experiment [1], the Dmax at 0.5 µM was 20 to 49%, the Dmax at 1 µM was less than 20%, the Dmax at 3 µM was 20 to 49% and the Dmax at 6 µM was in the range of 20 to 49%. In experiment [2], the Dmax at 3 µM is less than 20% and the Dmax at 6 µM is 20 to 49%.

On to `CN(C)CC12CC(C1)N(c1nccc(Nc3cc(C4CC4)[nH]n3)n1)C2` [Compound 22, N-(5-Cyclopropyl-1H-pyrazol-3-yl)-2-[4-[(dimethylamino)methyl]-2-azabicyclo[2.1.1]hexan-2-yl]pyrimidin-4-amine], for which, in experiment [1], the Dmax at 0.5 µM is less than 20%, the Dmax at 1 µM was less than 20%, the Dmax at 3 µM lay within 20 to 49% and the Dmax at 6 µM fell in the range of 50 to 79%. For the same molecule, in experiment [2], the Dmax at 3 µM is less than 20% and the Dmax at 6 µM lay within 80 to 100%.

With `NC[C@H]1CCN(c2nccc(Nc3cc(C4CCCC4)[nH]n3)n2)C1` [Compound 23, 2-[(3R)-3-(aminomethyl)pyrrolidin-1-yl]-N-(5-cyclopentyl-1H-pyrazol-3-yl)pyrimidin-4-amine], in experiment [1], the Dmax at 0.5 µM lay within 20 to 49%, the Dmax at 1 µM was in the range of 50 to 79%, the Dmax at 3 µM was in the range of 80 to 100% and the Dmax at 6 µM was 80 to 100%. In experiment [2], the Dmax at 3 µM is 80 to 100% and the Dmax at 6 µM is 80 to 100%.

For `NC[C@@H]1CCCN(c2nccc(Nc3cc(C4CC4)[nH]n3)n2)C1` [Compound 24, 2-[(3S)-3-(aminomethyl)-1-piperidyl]-N-(5-cyclopropyl-1H-pyrazol-3-yl)pyrimidin-4-amine], in experiment [1], the Dmax at 0.5 µM lay in the range of 20 to 49%, the Dmax at 1 µM lay within 50 to 79%, the Dmax at 3 µM lay in the range of 80 to 100% and the Dmax at 6 µM lay in the range of 80 to 100%. In experiment [2], the Dmax at 0.5 µM was less than 20%, the Dmax at 3 µM lay within 80 to 100% and the Dmax at 6 µM lay within 80 to 100%.

For `c1cc(Nc2cc(C3CC3)[nH]n2)nc(N2CC3(CCNC3)C2)n1` [Compound 25, N-(5-cyclopropyl-1H-pyrazol-3-yl)-2-(2,7-diazaspiro[3.4]octan-2-yl)pyrimidin-4-amine], in experiment [1], the Dmax at 0.5 µM is 20 to 49%, the Dmax at 1 µM lay in the range of 20 to 49%, the Dmax at 3 µM is 20 to 49% and the Dmax at 6 µM lay within 20 to 49%. For the same molecule, in experiment [2], the Dmax at 0.5 µM is less than 20% and the Dmax at 1 µM is less than 20%.

For `CN1CCC2(C1)CN(c1nccc(Nc3cc(C4CC4)[nH]n3)n1)C2` [Compound 26, N-(5-cyclopropyl-1H-pyrazol-3-yl)-2-(7-methyl-2,7-diazaspiro[3.4]octan-2-yl)pyrimidin-4-amine], in experiment [1], the Dmax at 0.5 µM is 20 to 49%, the Dmax at 1 µM lay in the range of 20 to 49%, the Dmax at 3 µM lay in the range of 20 to 49% and the Dmax at 6 µM is 50 to 79%. Further, in experiment [2], the Dmax at 0.5 µM was in the range of 20 to 49%, the Dmax at 1 µM is 20 to 49% and the Dmax at 3 µM is less than 20%.
